Measured values from PubChem BioAssay (NCI).
Several values for one entry are separate records, joined by “and”; a condition that tells them apart may be missing. Equal values may be shown once.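 Compound exposure: 48 hours, 5 concentrations, 96-well plates. GI50: concentration for 50% inhibition of growth. Definition used: TGI = concentration required for complete inhibition of growth.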

Legend:
Assay in all cases: inhibition of tumour cell growth, NCI panel, 48 h
[1] = system: 786-0 renal
[2] = system: ACHN renal
[3] = system: EKVX NSCLC
[4] = system: HOP-92 NSCLC
[5] = system: MALME-3M melanoma
[6] = system: NCI-H23 lung
[7] = system: OVCAR-3 ovarian
[8] = system: OVCAR-5 ovarian
[9] = system: SF-295 CNS
[10] = system: SK-MEL-5 melanoma

Structure (SMILES)	GI50 [1] [nM]	TGI [1]	GI50 [2] [nM]	TGI [2]	GI50 [3] [µM]	TGI [3]	GI50 [4] [nM]	TGI [4]	TGI [5]	TGI [6]	TGI [7]	GI50 [8] [µM]	TGI [8]	GI50 [9] [nM]	TGI [9]	TGI [10]	GI50 [5] [µM]	GI50 [6] [µM]	GI50 [7] [µM]	GI50 [10] [µM]
CCN(CC)CCCC(C)Nc1c2ccc(Cl)cc2nc2ccc(OC)cc12 (stereo not given)	1880	4.15 µM and 4.77 µM	1420	5.15 µM and 9.77 µM	2.09	7.29 µM and 13.3 µM	811	3.17 µM and 2.53 µM	3.79 µM and 3.3 µM	4.11 µM and 3.27 µM	6.89 µM and 9.8 µM	2.34	6.45 µM and 4.75 µM	1550	3.51 µM and 2.4 µM	3.1 µM	–	–	–	–
COc1ccc(NC(=O)C(=O)C(C(=O)c2ccccc2)C2OC(=O)c3ccccc32)c([N+](=O)[O-])c1 (stereo not given)	–	> 100 µM	–	> 100 µM	–	> 100 µM	–	> 100 µM	> 100 µM	> 100 µM	–	–	> 100 µM	–	> 100 µM	> 100 µM	–	–	–	–
NC(=O)C(=Cc1ccc(C(O)P(=O)(O)O)cc1)C(N)=O (stereo not given)	–	> 100 µM	–	> 100 µM	–	> 100 µM	–	> 100 µM	> 100 µM	> 100 µM	> 100 µM	–	> 100 µM	–	> 100 µM	> 100 µM	–	–	–	–
Cc1[nH]c2ccccc2c1C1Cc2ccccc2N1C(=O)/C=C\C(=O)O (stereo not given)	–	> 100 µM	–	> 100 µM	–	> 100 µM	–	76.6 µM	> 100 µM	> 100 µM	> 100 µM	–	> 100 µM	–	99.4 µM	88.3 µM	–	–	–	–
NOCC(=O)O	> 100000	> 100 µM	> 100000	> 100 µM	> 100	> 100 µM	–	–	> 100 µM	> 100 µM	> 100 µM	> 100	> 100 µM	> 100000	> 100 µM	> 100 µM	> 100	> 100	> 100	> 100
O=C(Nc1cc(Cl)c(Cl)cc1Cl)C(=O)C1C=CCS1(=O)=O (stereo not given)	–	> 100 µM	–	> 100 µM	–	> 100 µM	–	> 100 µM	> 100 µM	> 100 µM	> 100 µM	–	> 100 µM	–	> 100 µM	> 100 µM	–	–	–	–
CC(=O)CC(=O)Nc1ccc2ccccc2c1	–	> 100 µM	–	> 100 µM	–	> 100 µM	–	> 100 µM	> 100 µM	> 100 µM	> 100 µM	–	> 100 µM	–	> 100 µM	> 100 µM	–	–	–	–
CC(=O)[O-].CC(=O)[O-].[Pt+2].c1cscn1.c1cscn1	> 100000	> 100 µM	19700	42.2 µM	–	–	> 100000	> 100 µM	> 100 µM	> 100 µM	> 100 µM	> 100	> 100 µM	> 100000	> 100 µM	> 100 µM	> 100	> 100	> 100	> 100
CCC1(CC)C(=O)OC(=O)C1(CC)CC	–	> 100 µM	–	> 100 µM	–	> 100 µM	–	–	–	> 100 µM	> 100 µM	–	–	–	> 100 µM	> 100 µM	–	–	–	–
Cc1c(NC(=O)C(C)(C)Br)c(=O)oc2c(C)c3occc(=O)c3cc12	–	> 100 µM	–	> 100 µM	–	> 100 µM	–	–	> 100 µM	> 100 µM	> 100 µM	–	–	–	> 100 µM	> 100 µM	–	–	–	–
CN1CCN(CCCN)CC1	–	> 100 µM	–	> 100 µM	–	> 100 µM	–	–	> 100 µM	> 100 µM	> 100 µM	–	> 100 µM	–	> 100 µM	> 100 µM	–	–	–	–
Nc1ccc(N(S(=O)(=O)c2ccccc2)S(=O)(=O)c2ccccc2)c(Cl)c1	–	> 100 µM	–	> 100 µM	–	> 100 µM	–	> 100 µM	> 100 µM	> 100 µM	–	–	> 100 µM	–	> 100 µM	50.4 µM	–	–	–	–
CC(C)=CCCC(C)c1ccc(C)c2c1OCN(CC1CCNCC1)C2 (stereo not given)	12200	26.3 µM	15300	30 µM	20.7	66.9 µM	–	–	35.3 µM	33.6 µM	31.1 µM	14.3	28.8 µM	15900	34.9 µM	18.3 µM	17.7	15.7	15.6	4.97
CC(C)c1ccc(C(=O)Nc2nc3ccc(O)cc3s2)cc1	866	6.09 µM	304	> 100 µM	2.34	> 100 µM	5180	55 µM	> 100 µM	> 100 µM	51.4 µM	7.68	> 100 µM	–	–	> 100 µM	0.684	3.52	1.36	0.535
Cn1c([N+](=O)[O-])cnc1/C=C1\Oc2ccccc2C1=O	203	3.67 µM	197	0.632 µM	–	–	762	3.37 µM	3.2 µM	2.61 µM	5.21 µM	1.99	6.63 µM	1650	6.19 µM	0.727 µM	0.626	0.37	0.527	0.234
O=[N+]([O-])c1cc(Cl)c(Cl)c([N+](=O)[O-])c1Cl	1880	3.43 µM	1760	3.6 µM	2.23	5.32 µM	1920	3.76 µM	2.18 µM	–	3.07 µM	2.13	4.18 µM	1990	4.4 µM	3.47 µM	0.473	–	1.69	1.73
CCOC(=O)NC(=O)c1cn(CC(=O)NCC(=O)NCC(=O)NCCCN2CCN(CCCNC(=O)CNC(=O)CNC(=O)Cn3cc(C(=O)NC(=O)OCC)c(=O)[nH]c3=O)CC2)c(=O)[nH]c1=O	–	> 100 µM	–	> 100 µM	–	–	–	> 100 µM	> 100 µM	> 100 µM	> 100 µM	–	> 100 µM	–	> 100 µM	> 100 µM	–	–	–	–

Structure (SMILES)	GI50 [1] [nM]	TGI [1]	GI50 [2] [nM]	TGI [2]	GI50 [3] [µM]	TGI [3]	GI50 [4] [nM]	TGI [4]	TGI [5]	TGI [6]	TGI [7]	GI50 [8] [µM]	TGI [8]	GI50 [9] [nM]	TGI [9]	TGI [10]	GI50 [5] [µM]	GI50 [6] [µM]	GI50 [7] [µM]	GI50 [10] [µM]
COc1cc2c(cc1OCCCOc1cc3c(cc1OC)C(=O)N1C[C@H](F)C[C@H]1C=N3)N=C[C@@H]1C[C@@H](F)CN1C2=O	8450	20.6 µM	10500	31.8 µM	18.7	35.5 µM	5180	18 µM	18.1 µM	17.8 µM	26 µM	13.2	25.9 µM	5360	18.1 µM	–	4.28	5.83	9.75	–
Cc1cc(C)c([O-])c(CN(C)CCN(C)Cc2cc(C)cc(C)c2[O-])c1.O=C([O-])c1cccc(C(=O)[O-])n1.[Ti+4]	1830	> 100 µM	2430	> 100 µM	3.4	> 100 µM	2510	6.47 µM	5.21 µM	5.06 µM	–	2.31	> 100 µM	2570	> 100 µM	> 100 µM	1.45	2.03	–	2.9
COc1ccc(N2C(=O)CC(Cl)C2=O)cc1 (stereo not given)	–	32 µM	–	31.7 µM	–	> 100 µM	–	73.7 µM	32.8 µM	48.5 µM	28.7 µM	–	34.1 µM	–	–	> 100 µM	–	–	–	–
COc1cc(/C=C(\C#N)C(=O)c2ccccc2)ccc1OCc1ccccc1	–	> 100 µM	–	> 100 µM	–	> 100 µM	–	–	–	> 100 µM	> 100 µM	–	> 100 µM	–	> 100 µM	> 100 µM	–	–	–	–
COc1cc(OC)c(/C=C/S(=O)(=O)Cc2cnc(OC)c(N)c2)c(OC)c1	< 31	> 100 µM	< 23.3	> 100 µM	0.223	> 100 µM	–	–	> 100 µM	> 100 µM	> 100 µM	< 0.0482	> 100 µM	< 13.3	> 100 µM	0.721 µM	> 100	< 0.0262	0.0264	< 0.014
O=c1c(Oc2ccc(F)cc2F)cc2cnc(NC3CCOCC3)nc2n1C1CCS(=O)(=O)CC1	> 25000	> 25 µM	> 25000	> 25 µM	–	–	> 25000	> 25 µM	> 25 µM	> 25 µM	> 25 µM	> 25	> 25 µM	> 25000	> 25 µM	> 25 µM	> 25	> 25	> 25	> 25
Cc1c[nH]c2c(O)cc3c(c12)[C@H](CCl)CN3C(=O)c1cc2cc(NC(=O)Nc3ccc4[nH]c(C(=O)N5C[C@@H](CCl)c6c5cc(O)c5[nH]cc(C)c65)cc4c3)ccc2[nH]1	0.203	–	0.0841	–	–	7.21 nM and > 100 µM and 9.5e-07 µg/mL	–	> 100 µM and 0.00813 µg/mL	34.2 µM and 0.0012 µg/mL	–	43.2 µM	–	–	–	–	26.6 nM and 25.5 µM and 0.00138 µg/mL	–	–	–	–
COc1cc(Cl)c2c3c(c(C(C)=O)oc13)CCC2	–	> 100 µM	–	> 100 µM	–	> 100 µM	–	> 100 µM	–	> 100 µM	> 100 µM	–	–	–	> 100 µM	> 100 µM	–	–	–	–
COc1ccc(-c2onc(-c3ccc([N+](=O)[O-])cc3)c2C2=NCCN2)cc1	–	43 µM	–	> 100 µM	–	> 100 µM	–	–	> 100 µM	> 100 µM	> 100 µM	–	> 100 µM	–	> 100 µM	> 100 µM	–	–	–	–
COc1ccccc1N1C(=O)/C(=C/c2ccc(N(CCC#N)CCC#N)cc2C)N=C1c1cc([N+](=O)[O-])ccc1Cl	–	> 100 µM	–	> 100 µM	–	> 100 µM	–	–	> 100 µM	> 100 µM	> 100 µM	–	> 100 µM	–	> 100 µM	> 100 µM	–	–	–	–
O=C(/C=C/c1ccc([N+](=O)[O-])o1)N1CCN(Cc2ccccc2)CC1	–	26.1 µM	–	28.3 µM	–	38.2 µM	–	27.8 µM	–	18.7 µM	31.7 µM	–	31.1 µM	–	29.2 µM	22.4 µM	–	–	–	–
C=CCC(N[C@H](CO)c1ccccc1)c1ccc2ccccc2n1 (stereo not given in full)	> 100000	> 100 µM	> 100000	> 100 µM	> 100	> 100 µM	–	–	> 100 µM	> 100 µM	> 100 µM	> 100	> 100 µM	> 100000	> 100 µM	–	> 100	> 100	> 100	–
Nc1c(C(=O)c2ccc(Cl)cc2)sc(Nc2ccccc2)c1-c1nc2ccccc2s1	2800	8.18 µM	1610	> 100 µM	2	> 100 µM	777	4.7 µM	> 100 µM	18.5 µM	–	> 100	> 100 µM	2180	10.8 µM	> 100 µM	0.751	1.64	–	16.6
Cc1cc(I)cc(CN(C)CCCN2CCSCC2)c1O	21200	53.3 µM	41000	> 100 µM	29.4	> 100 µM	14600	47.4 µM	44.6 µM	65.1 µM	> 100 µM	29.1	92.4 µM	–	–	31 µM	23.2	23.5	29.7	16.4
CC12OC(c3ccccc3)=CC(c3ccc(Cl)cc3)=C1C(c1ccccc1)=CC2=O (stereo not given)	94700	> 100 µM	55400	> 100 µM	> 100	> 100 µM	–	–	> 100 µM	> 100 µM	> 100 µM	> 100	> 100 µM	25000	> 100 µM	> 100 µM	> 100	41.5	80	42.1
O=C1OC(CC(=O)c2ccc(Cl)c(Cl)c2)C(Cl)=C1Cl (stereo not given)	–	> 100 µM	–	> 100 µM	–	> 100 µM	–	–	> 100 µM	> 100 µM	> 100 µM	–	> 100 µM	–	> 100 µM	> 100 µM	–	–	–	–
